In brackets after ≈: the same amount, converted by molar mass. Read-outs that look alike come from different tables or passages of the source.
Columns and labels:
S. aureus pMS520/Smith = experiment: In vitro antibacterial activity, agar plate dilution method (MIC); type: cell-based; conditions: Staphylococcus aureus, 16 h, read-out: Minimum Inhibitory Concentration (MIC)
Experimental: (§1) One platinum loopful of each test microorganism incubated overnight in Mueller Hinton broth, was inoculated to Mueller Hinton agar (inoculum size: 10^6 CFU/ml). Such culture media contained antibacterial agents in various concentrations. […] The minimum inhibitory concentrations of the compounds of the present invention were compared with imipenem.

S. aureus BB5939 = experiment: as above; type: cell-based; conditions: Staphylococcus aureus, read-out: Minimum Inhibitory Concentration (MIC)
Experimental: as §1

DHP-I [1] = type: in vitro ADME; conditions: ratio to imipenem (=1.0); the smaller the value, the higher the stability
Excerpt: Further, the DHP-I susceptibility was quantitatively analyzed by the method by Kropp et al., Antimicrob. Agents Chemother., vol. 22, pp. 62-70 (1982), whereby the smaller the numerical value representing the ratio to imipenem (=1.0), the higher the stability.
The DHP-1 susceptibility of the compounds of the present invention were compared with imipenem.

β-lactamase = conditions: background statement; cited from earlier work
DHP-I [2] = conditions: background statement; cited from earlier work
[3] = cited from earlier work
[4] = system: highly methicillin-resistant Staphylococcus aureus resistant to imipenem and imipenem-resistant Pseudomonas aeruginosa; conditions: background statement; cited from earlier work
[5] = system: gram positive bacteria and gram negative bacteria; conditions: background statement; cited from earlier work
kidney = conditions: background statement; cited from earlier work
[6] = system: renal dehydropeptidase I (DHP-I); conditions: in vivo; cited from earlier work
[7] = background statement; cited from earlier work
[8] = S. aureus BB5939 (β-lactamase-producing bacterium per footnote), inoculum 10^6 CFU/ml, Mueller Hinton agar, 37° C., 16 hours

Row | Structure (SMILES) | MIC (S. aureus pMS520/Smith) [µg/mL] | DHP-I susceptibility (DHP-I [1]) | MIC (S. aureus BB5939; [8]) [µg/mL] | also measured
1 | C[C@@H](O)[C@H]1C(=O)N2C(C(=O)[O-])=C(S[C@@H]3CN[C@H](CSc4ccccc4)C3)[C@H](C)[C@H]12.[Na+] | 1.56 | 0.15 |  | MIC (S. aureus BB5939; BB5939, 16 h): 0.39 µg/mL
2 | C[C@@H](O)[C@H]1C(=O)N2C(C(=O)O)=C(S[C@@H]3CN[C@H](C(O)c4ccc(-c5ccc(CN)cc5)cc4)C3)[C@H](C)[C@H]12 (single isomer, unassigned; diastereomer i) [Example 140] | 1.56 (≈ 2.98 µM) | < 0.05 | 0.78 (≈ 1.49 µM) | 
3 | C[C@@H](O)[C@H]1C(=O)N2C(C(=O)O)=C(S[C@@H]3CN[C@H](CNc4ccc(CN)cc4)C3)[C@H](C)[C@H]12.Cl [Example 121, (1R,5S,6S)-2-[(3S,5S)-5-[4-(Aminomethyl)anilinomethyl]-pyrrolidin-3-ylthio]-6-[(R)-1-hydroxyethyl]-1-methyl-1-carbapen-2-em-3-carboxylic acid monohydrochloride] | 1.56 | 0.15 | 0.39 | 
4 | C[C@@H](O)[C@H]1C(=O)N2C(C(=O)O)=C(S[C@@H]3CN[C@H](COc4ccc(CN)cc4)C3)[C@H](C)[C@H]12.Cl [Example 127, (1R,5S,6S)-2-[(3S,5S)-5-[4-(Aminomethyl)phenoxymethyl]-pyrrolidin-3-ylthio]-6-[(R)-1-hydroxyethyl]-1-methyl-1-carbapen-2-em-3-carboxylic acid monohydrochloride] | 3.13 | 0.15 | 0.78 | 
5 | C[C@@H](O)[C@H]1C(=O)N2C(C(=O)O)=C(S[C@@H]3CN[C@H](COc4ccccc4)C3)[C@H](C)[C@H]12 [Example 128, (1R,5S,6S)-6-[(R)-1-Hydroxyethyl]-1-methyl-2-[(3S,5S)-5-(phenoxymethyl)pyrrolidin-3-ylthio]-1-carbapen-2-em-3-carboxylic acid] |  | 0.16 |  | 
6 | C[C@@H](O)[C@H]1C(=O)N2C(C(=O)O)=C(S[C@@H]3CN[C@H](Cc4ccc(CN)cc4)C3)[C@H](C)[C@H]12 [Example 131] | 3.13 (≈ 7.25 µM) | < 0.05 | 0.78 (≈ 1.81 µM) | 
7 | C=CCN1C[C@@H](SC2=C(C(=O)O)N3C(=O)[C@H]([C@@H](C)O)[C@H]3[C@H]2C)C[C@H]1Cc1cccc2ccccc12 [Example 137, (1R,5S,6S)-2-[(3S,5R)-N-Allyl-5-(1-naphthylmethyl)pyrrolidin-3-ylthio]-6-[(R)-1-hydroxyethyl]-1-methyl-1-carbapen-2-em-3-carboxylic acid] |  | < 0.05 |  | 
8 | C[C@@H](O)[C@H]1C(=O)N2C(C(=O)O)=C(SCCN=CN)C[C@H]12 [Imipenem, (5R,6S)-3-[2-(formimidoylamino)ethylthie]-6-[(R)-1-hydroxyethyl]-7-oxo-1-azabicyclo[3.2.0]hept-2-en-2-carboxylic acid monohydrate] | > 25 | 1.0 |  | MIC (S. aureus BB5939; BB5939, 16 h): 6.25 µg/mL; β-lactamase resistance (β-lactamase): β-lactamase resistance; decomposition by DHP-I in the human kidney (DHP-I [2]): likely to be decomposed by DHP-I in the human kidney; stability in the solid form or in an aqueous solution ([3]; vs thienamycin): remarkably improved over thienamycin; treating effects against resistant bacteria [4]: does not show adequate treating effects against these resistant bacteria; antibacterial activities [5]: antibacterial activities of an equal or higher level than thienamycin; toxicity against the kidney (kidney): presents toxicity against the kidney
9 | C[C@@H](O)[C@H]1C(=O)N2C(C(=O)O)=C(SCCN)C[C@H]12 [thienamycin] |  |  |  | decomposition by renal dehydropeptidase I [6]: likely to be decomposed; recovery rate in the urine [7]: low; decomposition by DHP-I in the human kidney (DHP-I [2]): likely to be decomposed by DHP-I in the human kidney; chemical stability ([3]; background statement): chemically unstable; antibacterial activities [5]: excellent antibacterial spectrum and strong antibacterial activities
10 | CN[C@H](CC(C)C)C(=O)N[C@H]1C(=O)N[C@@H](CC(N)=O)C(=O)N[C@H]2C(=O)N[C@H]3C(=O)N[C@H](C(=O)N[C@H](C(=O)O)c4cc(O)cc(O)c4-c4cc3ccc4O)[C@H](O)c3ccc(c(Cl)c3)Oc3cc2cc(c3O[C@@H]2O[C@H](CO)[C@@H](O)[C@H](O)[C@H]2O[C@H]2C[C@](C)(N)[C@H](O)[C@H](C)O2)Oc2ccc(cc2Cl)[C@H]1O [vancomycin] |  |  |  | toxicity against the kidney (kidney): strong toxicity

Reference: US5707987A, “Carbapenem derivatives” (Banyu Pharmaceutical Co., Ltd., priority 1994, dated 1998)
